# “Also recorded” adds a separate entry of the source.
# Biological target: ACE-2 (Homo sapiens, UniProt Q9BYF1)
# Test: ACE-2 enzyme activity assay (MCA based peptide substrate, fluorescence)
# Assay type: biochemical
# Conditions: 20 μg/mL each compound
# ACE-2, sequence (Q9BYF1 18-805, species assumed): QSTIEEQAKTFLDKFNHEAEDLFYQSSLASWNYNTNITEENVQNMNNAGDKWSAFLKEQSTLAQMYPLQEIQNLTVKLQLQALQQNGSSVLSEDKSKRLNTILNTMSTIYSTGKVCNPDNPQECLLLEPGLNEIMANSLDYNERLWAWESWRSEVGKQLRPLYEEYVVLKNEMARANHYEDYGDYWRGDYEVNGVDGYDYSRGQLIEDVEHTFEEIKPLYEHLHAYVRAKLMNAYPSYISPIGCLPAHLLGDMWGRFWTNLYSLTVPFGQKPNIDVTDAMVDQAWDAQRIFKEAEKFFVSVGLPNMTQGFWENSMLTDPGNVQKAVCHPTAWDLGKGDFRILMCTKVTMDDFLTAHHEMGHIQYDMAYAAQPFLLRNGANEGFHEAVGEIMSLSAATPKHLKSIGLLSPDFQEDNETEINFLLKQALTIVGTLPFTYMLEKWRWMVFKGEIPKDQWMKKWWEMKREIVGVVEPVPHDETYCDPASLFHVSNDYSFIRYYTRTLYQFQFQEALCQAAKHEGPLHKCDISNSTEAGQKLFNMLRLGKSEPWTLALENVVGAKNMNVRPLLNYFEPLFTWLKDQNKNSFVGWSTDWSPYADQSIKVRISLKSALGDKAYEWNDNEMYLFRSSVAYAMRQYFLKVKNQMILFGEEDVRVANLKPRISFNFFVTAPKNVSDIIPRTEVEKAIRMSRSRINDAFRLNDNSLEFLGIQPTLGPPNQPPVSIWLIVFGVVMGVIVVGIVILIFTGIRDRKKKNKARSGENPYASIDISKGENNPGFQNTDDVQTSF
row,Compound,inhibition of ACE-2 enzyme activity
1,"C=C(CC[C@@H](C(=O)O)[C@H]1C[C@H](O)[C@@]2(C)C3=CC[C@H]4C(C)(C)[C@@H](O)CC[C@]4(C)C3=CC[C@]12C)C(C)C [DSA, dehydrosulphurenic acid]",more than 30%

# Same assay, conditions: 20 μg/mL each ingredient
row,Compound,inhibition ability on ACE-2 enzymatic activity
1,C=C(CC[C@@H](C)[C@H]1CC[C@H]2C3=C(C(=O)C[C@]12C)[C@@]1(C)CCC(=O)[C@@H](C)[C@@H]1CC3)C(C)C(=O)O (stereo partly shown) [Antcin A],stronger inhibition activity
2,C=C(CCC(C)C1CCC2C3=C(C(=O)C(O)C21C)C1(C)CCC(O)C(C)C1CC3=O)C(C)C(=O)O (stereo not shown) [Antcin H],had inhibition ability
3,"C=C(CC[C@@H](C(=O)O)[C@H]1CC[C@@]2(C)C3=CC[C@H]4C(C)(C)[C@@H](O)CC[C@]4(C)C3=CC[C@]12C)C(C)C [DEA, dehydroeburicoic acid]",had inhibition ability; also recorded: have ability of inhibition on ACE-2
4,"C=C(CC[C@@H](C(=O)O)[C@H]1C[C@H](O)[C@@]2(C)C3=CC[C@H]4C(C)(C)[C@@H](O)CC[C@]4(C)C3=CC[C@]12C)C(C)C [DSA, dehydrosulphurenic acid]",stronger inhibition activity; also recorded: have ability of inhibition on ACE-2
5,Antcin C,had inhibition ability
6,Antcin K,stronger inhibition activity; also recorded: have ability of inhibition on ACE-2

# — patent US20230181662A1, “USES OF ANTRODIA CINNAMOMEA EXTRACT IN MANUFACTURING PRODUCTS FOR REDUCING EXPRESSION AND TREATING ASSOCIATED DISEASES OF ANGIOTENSIN CONVERTING ENZYME 2” (priority 2020, published 2023)
